Results reported in ChEMBL document CHEMBL5096199, “Structure-Based Optimization of Small Molecule Human Galactokinase Inhibitors” (J Med Chem, 2021).
Converted amounts (≈) assume the structure as drawn. Blank lines part the entries; values can stand above or below the molecule they belong to.

Columns and labels:
Galactokinase [1] = target: T1, Galactokinase (Homo sapiens, UniProt P51570); assay: Inhibition of recombinant human GALK1 using galactose as substrate incubated for 1 hrs in the presence of ATP by Kinase-Glo reagent based luminescence assay
T1 sequence (P51570 whole entry): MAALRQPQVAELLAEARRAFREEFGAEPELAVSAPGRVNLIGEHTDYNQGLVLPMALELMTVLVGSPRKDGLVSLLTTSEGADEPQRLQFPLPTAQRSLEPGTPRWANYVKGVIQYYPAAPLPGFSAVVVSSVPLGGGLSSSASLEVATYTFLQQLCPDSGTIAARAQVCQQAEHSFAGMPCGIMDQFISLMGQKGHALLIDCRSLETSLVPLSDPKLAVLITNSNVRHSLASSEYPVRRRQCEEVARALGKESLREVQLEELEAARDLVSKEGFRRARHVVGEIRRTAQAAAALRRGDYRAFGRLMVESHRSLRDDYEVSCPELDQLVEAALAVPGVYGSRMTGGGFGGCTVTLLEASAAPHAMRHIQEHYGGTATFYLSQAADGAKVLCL

[2] = Metabolic stability in mouse liver microsome assessed as half life; assay type: ADME; details: microsomes
[3] = Metabolic stability in human liver microsomes assessed as half life; assay type: ADME, Microsome
[4] = Permeability of the compound at pH 7.4 measured after 30 mins by PAMPA based LC/MS analysis; assay type: ADME; details: PAMPA, pH 7.4, read-out: permeability
physchem = details: phosphate buffer, pH 7.4
Description: Kinetic solubility of the compound in phosphate buffer at pH 7.4 at 150 uM incubated for 6 hrs by shake-flask method

[5] = Dose normalized AUClast in CD-1 mouse at 30 mg/kg, po measured upto 24 hrs by LC-MS/MS analysis; assay type: ADME, organism-based; details: in vivo
[6] = AUClast in CD-1 mouse at 30 mg/kg, po measured upto 24 hrs by LC-MS/MS analysis; assay type: ADME, organism-based; design: dose 30 mg/kg, time < 24 hrs, route po; details: in vivo
[7] = AUClast in CD-1 mouse at 50 mg/kg, ip measured upto 24 hrs by LC-MS/MS analysis; assay type: ADME, organism-based; design: time < 24 hrs, dose 50 mg/kg, route ip; details: in vivo
Galactokinase [8] = target: T1, Galactokinase; assay: Inhibition of human GALK1 in GALT-deficient human fibroblast assessed as reduction in gal-1P level incubated for 2 to 4 hrs by cellular Gal-1P accumulation assay; assay type: cell-based; details: dose 0.5-3 µM, time 2-4 hrs, DDE = dose-dependent effect
Galactokinase [9] = target: T1, Galactokinase; assay: Inhibition of human GALK1 in GALT-deficient human fibroblast assessed as reduction in gal-1P level at 3 uM incubated for 2 to 4 hrs by cellular Gal-1P accumulation assay relative to control; assay type: cell-based; details: time 2-4 hrs
[10] = Half life in CD-1 mouse at 3 mg/kg, iv measured upto 24 hrs by LC-MS/MS analysis; assay type: ADME, organism-based; details: in vivo
[11] = C0 in CD-1 mouse at 3 mg/kg, iv measured upto 24 hrs by LC-MS/MS analysis; assay type: ADME, organism-based; details: in vivo
[12] = AUClast in CD-1 mouse at 3 mg/kg, iv measured upto 24 hrs by LC-MS/MS analysis; assay type: ADME, organism-based; design: time < 24 hrs, dose 3 mg/kg, route iv; details: in vivo
[13] = AUCinfinity in CD-1 mouse at 3 mg/kg, iv measured upto 24 hrs by LC-MS/MS analysis; assay type: ADME, organism-based; design: time < 24 hrs, dose 3 mg/kg, route iv; details: in vivo
[14] = Dose normalized AUClast in CD-1 mouse at 3 mg/kg, iv measured upto 24 hrs by LC-MS/MS analysis; assay type: ADME, organism-based; details: in vivo
[15] = Observed volume of distribution at steady state in CD-1 mouse at 3 mg/kg, iv measured upto 24 hrs by LC-MS/MS analysis; assay type: ADME, organism-based; details: in vivo, read-out: Vdss
[16] = Half life in CD-1 mouse at 30 mg/kg, po measured upto 24 hrs by LC-MS/MS analysis; assay type: ADME, organism-based; details: in vivo
[17] = Half life in CD-1 mouse at 50 mg/kg, ip measured upto 24 hrs by LC-MS/MS analysis; assay type: ADME, organism-based; details: in vivo
[18] = Tmax in CD-1 mouse at 30 mg/kg, po measured upto 24 hrs by LC-MS/MS analysis; assay type: ADME, organism-based; details: in vivo
[19] = Tmax in CD-1 mouse at 50 mg/kg, ip measured upto 24 hrs by LC-MS/MS analysis; assay type: ADME, organism-based; details: in vivo
[20] = Cmax in CD-1 mouse at 30 mg/kg, po measured upto 24 hrs by LC-MS/MS analysis; assay type: ADME, organism-based; design: time < 24 hrs, dose 30 mg/kg, route po; details: in vivo
[21] = Cmax in CD-1 mouse at 50 mg/kg, ip measured upto 24 hrs by LC-MS/MS analysis; assay type: ADME, organism-based; design: dose 50 mg/kg, time < 24 hrs, route ip; details: in vivo
[22] = AUCinfinity in CD-1 mouse at 30 mg/kg, po measured upto 24 hrs by LC-MS/MS analysis; assay type: ADME, organism-based; design: time < 24 hrs, dose 30 mg/kg, route po; details: in vivo
[23] = AUCinfinity in CD-1 mouse at 50 mg/kg, ip measured upto 24 hrs by LC-MS/MS analysis; assay type: ADME, organism-based; design: time < 24 hrs, dose 50 mg/kg, route ip; details: in vivo
[24] = Dose normalized AUClast in CD-1 mouse at 50 mg/kg, ip measured upto 24 hrs by LC-MS/MS analysis; assay type: ADME, organism-based; details: in vivo
[25] = Oral bioavailability in CD-1 mouse at 30 mg/kg measured upto 24 hrs by LC-MS/MS analysis; assay type: ADME, organism-based; details: in vivo
[26] = Drug concentration in CD-1 mouse plasma at 50 mg/kg, ip measured after 7 hrs by LC-MS/MS analysis; assay type: ADME, organism-based
[27] = Plasma protein binding in CD-1 mouse; assay type: ADME, cell-free
[28] = Drug concentration in CD-1 mouse plasma at 3 mg/kg, iv measured after 2 hrs by LC-MS/MS analysis; assay type: ADME, organism-based; details: in vivo, BLD = below limit of detection

- IC50 (Galactokinase [1]; read-out: pIC50 (converted)): 120 nM
- t1/2 [2]: 7 min
- t1/2 [3]: 37 min
- Papp at 0.5 h [4]: 661 ×10⁻⁶ cm/s
- solubility kinetic at 6 h, 150 µM (physchem): 17 µg/mL (≈ 33.7 µM)
SMILES: CC1=C(C(=O)NCc2cnn(C)c2)[C@H](c2ccc(C)cc2Cl)N=C(Nc2nc3cccc(N)c3o2)N1

- IC50 (Galactokinase [1]; read-out: pIC50 (converted)): 19500 nM
SMILES: CC1=C(C(=O)Nc2cc(C(=O)O)ccn2)C(c2ccccc2Cl)N=C(Nc2nc3c(N)cccc3o2)N1 (stereo not drawn)

- IC50 (Galactokinase [1]; read-out: pIC50 (converted)): 7410 nM
SMILES: CC1=C(C(=O)Nc2cc(C(=O)O)ccn2)C(c2ccccc2Cl)N=C(Nc2nc3cc(N)ccc3o2)N1 (stereo not drawn)

- IC50 (Galactokinase [1]; read-out: pIC50 (converted)): 1480 nM
- t1/2 [2]: 12 min
- t1/2 [3]: 10 min
- Papp at 0.5 h [4]: 407 ×10⁻⁶ cm/s
- solubility kinetic at 6 h, 150 µM (physchem): 2.1 µg/mL (≈ 3.91 µM)
SMILES: CCn1cc(CNC(=O)C2=C(C)NC(Nc3nc4ccc(F)c(N)c4o3)=N[C@@H]2c2ccc(C)cc2Cl)cn1

- IC50 (Galactokinase [1]; read-out: pIC50 (converted)): 5250 nM
SMILES: CC1=C(C(=O)Nc2nnc(C)s2)C(c2ccccc2Cl)N=C(Nc2nc3ccccc3o2)N1 (stereo not drawn)

- IC50 (Galactokinase [1]; read-out: pIC50 (converted)): 6610 nM
SMILES: CC1=C(C(=O)Nc2cccc(F)c2)C(c2ccccc2Cl)N=C(Nc2nc3ccccc3o2)N1 (stereo not drawn)

- IC50 (Galactokinase [1]; read-out: pIC50 (converted)): 6610 nM
SMILES: COc1ccc2oc(NC3=NC(c4ccccc4Cl)C(C(=O)Nc4cc(C(=O)O)ccn4)=C(C)N3)nc2c1 (stereo not drawn)

- IC50 (Galactokinase [1]; read-out: pIC50 (converted)): 447 nM
SMILES: CC1=C(C(=O)Nc2cc(C(=O)O)ccn2)C(c2ccc(N3CCOCC3)cc2Cl)N=C(Nc2nc3ccc(F)cc3o2)N1 (stereo not drawn)

- IC50 (Galactokinase [1]; read-out: pIC50 (converted)): 1780 nM
SMILES: CC1=C(C(=O)Nc2cc(C(=O)O)ccn2)C(c2ccccc2Cl)N=C(Nc2nc3cccc(F)c3o2)N1 (stereo not drawn)

- IC50 (Galactokinase [1]; read-out: pIC50 (converted)): 2630 nM
SMILES: CC1=C(C(=O)Nc2cccc(C(=O)O)c2)C(c2ccccc2Cl)N=C(Nc2nc3ccccc3o2)N1 (stereo not drawn)

- IC50 (Galactokinase [1]; read-out: pIC50 (converted)): 234 nM
SMILES: CC1=C(C(=O)Nc2cc(C(=O)O)ccn2)C(c2ccccc2Cl)N=C(Nc2nc3cccc(N)c3o2)N1 (stereo not drawn)

- IC50 (Galactokinase [1]; read-out: IC50): 68 nM
- t1/2 [2]: 7 min
- t1/2 [3]: 12 min
- Papp at 0.5 h [4]: 773 ×10⁻⁶ cm/s
- solubility kinetic at 6 h, 150 µM (physchem): < 1 µg/mL
SMILES: CCn1cc(CNC(=O)C2=C(C)NC(Nc3nc4ccc(F)c(N)c4o3)=N[C@H]2c2ccc(C)cc2Cl)cn1

- IC50 (Galactokinase [1]; read-out: pIC50 (converted)): 4170 nM
SMILES: CC1=C(C(=O)Nc2ccccc2Cl)C(c2ccccc2Cl)N=C(Nc2nc3ccccc3o2)N1 (stereo not drawn)

- IC50 (Galactokinase [1]; read-out: pIC50 (converted)): 447 nM
SMILES: COc1ccc(C2N=C(Nc3nc4ccc(F)cc4o3)NC(C)=C2C(=O)Nc2cc(C(=O)O)ccn2)c(Cl)c1 (stereo not drawn)

- IC50 (Galactokinase [1]; read-out: pIC50 (converted)): 562 nM
SMILES: CC1=C(C(=O)Nc2cc(C(=O)O)ccn2)C(c2ccccc2Br)N=C(Nc2nc3ccc(F)cc3o2)N1 (stereo not drawn)

- IC50 (Galactokinase [1]; read-out: pIC50 (converted)): 1410 nM
SMILES: CC1=C(C(=O)NCc2cnn(C)c2)C(c2ccccc2Cl)N=C(Nc2nc3ccccc3o2)N1 (stereo not drawn)

- IC50 (Galactokinase [1]; read-out: pIC50 (converted)): 11700 nM
SMILES: CC1=C(C(=O)NCc2cnn(C)c2)[C@@H](c2ccc(C)cc2Cl)N=C(Nc2nc3cccc(N)c3o2)N1

- IC50 (Galactokinase [1]; read-out: pIC50 (converted)): 891 nM
SMILES: CC1=C(C(=O)Nc2cc(C(=O)O)ccn2)C(c2ccc(F)cc2Cl)N=C(Nc2nc3ccc(F)cc3o2)N1 (stereo not drawn)

- AUClast/dose [5]: 278 ng·h/mL/(mg/kg)
- AUClast [6]: 15.96 µM·h
- AUClast [7]: 80.36 µM·h
- IC50 (Galactokinase [1]; read-out: IC50): 48 nM
- t1/2 [2]: 14 min
- Papp at 0.5 h [4]: 485 ×10⁻⁶ cm/s
- inhibition (Galactokinase [8]): Dde
- inhibition (Galactokinase [9]): 50%
- t1/2 [10]: 24.6 min
- C0 at 24 h [11]: 8.25 µM
- AUClast [12]: 4.66 µM·h
- AUC [13]: 4.81 µM·h
- AUClast/dose [14]: 812 ng·h/mL/(mg/kg)
- Vd [15]: 0.652 L/kg
- t1/2 [16]: 136 min
- t1/2 [17]: 102 min
- Tmax [18]: 40.2 min
- Tmax [19]: 79.98 min
- Cmax [20]: 7.02 µM
- Cmax [21]: 21.9 µM
- AUC [22]: 16.06 µM·h
- AUC [23]: 80.36 µM·h
- AUClast/dose [24]: 841 ng·h/mL/(mg/kg)
- F [25]: 33%
- concentration at 7 h [26]: > 1 µM
- PPB [27]: 98.74%
- Cp [28]: Bld
- solubility kinetic at 6 h, 150 µM (physchem): 1.3 µg/mL (≈ 2.49 µM)
SMILES: CC1=C(C(=O)NCc2cnn(C)c2)C(c2ccc(C)cc2Cl)N=C(Nc2nc3ccc(F)c(N)c3o2)N1 (racemic)
